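Growth conditions: 96-well plates. Treatment: test compound, 48 hours, 5 concentrations. Analysis: linear interpolation between bracketing concentrations; unreached endpoints set to highest concentration. At the GI50, growth is halved. TGI is the concentration that stops growth completely.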
Columns and labels:
Assay in all cases: DTP human tumour cell line panel, 48 h
[1] = system: HOP-62 NSCLC
[2] = system: SF-295 CNS
[3] = system: NCI-H460 lung
[4] = system: SNB-75 CNS
[5] = system: LOX IMVI melanoma
[6] = system: HOP-92 NSCLC
[7] = system: KM12 colon
[8] = system: IGROV1 ovarian
[9] = system: M14 melanoma
[10] = system: HS 578T breast

Structure (SMILES)	TGI [1] [µM]	TGI [2] [µM]	TGI [3] [µM]	TGI [4] [µM]	TGI [5] [µM]	TGI [6] [µM]	TGI [7] [µM]	TGI [8] [µM]	TGI [9] [µM]	GI50 [1] [µM]	GI50 [3] [µM]	GI50 [9] [µM]	GI50 [4] [µM]	GI50 [6] [µM]	GI50 [8] [µM]	GI50 [5] [µM]	GI50 [10] [µM]	TGI [10] [µM]	GI50 [7] [µM]
O=C(O)NC(c1ccccc1)C(NC(=O)c1ccccc1)c1ccccc1 (configuration not stated)	> 100	> 100	> 100	> 100	> 100	> 100	> 100	> 100											
O=C1[C@H]2ON(c3ccccc3)C(c3ccccc3)[C@H]2C(=O)N1c1ccc(Cc2ccc(N3C(=O)[C@@H]4ON(c5ccccc5)C(c5ccccc5)[C@@H]4C3=O)cc2)cc1 (some centres not stated)	> 100	> 100	> 100	> 100	> 100	> 100	> 100	> 100	> 100										
C#CCOCn1cnc2c(Sc3c([N+](=O)[O-])ncn3C)ncnc21	> 100	> 100	> 100	72.7	> 100	> 100	> 100	> 100	> 100										
CC(=O)[CH-]C(=O)c1ccccc1.CC(=O)[CH-]C(=O)c1ccccc1.CC(C)CCCC(C)[C@H]1CCC2[C@@H]3CC=C4C[C@@H]([O-])CC[C@]4(C)C3CC[C@@]21C.CC(C)CCCC(C)[C@H]1CCC2[C@@H]3CC=C4C[C@@H]([O-])CC[C@]4(C)C3CC[C@@]21C.[Ti+4] (some centres not stated)	> 100		> 100	> 100		> 100		> 100	> 100	> 100	> 100	> 100	> 100	> 100	> 100				
CC(C)(C)CC(C)(C)c1cc2c(O)c(c1)Cc1cc(C(C)(C)CC(C)(C)C)cc(c1O)Cc1cc(C(C)(C)CC(C)(C)C)cc(c1O)Cc1cc(C(C)(C)CC(C)(C)C)cc(c1O)Cc1cc(C(C)(C)CC(C)(C)C)cc(c1O)C2	> 100	> 100	> 100	> 100		> 100	> 100	> 100	> 100										
O=C1C=CC(=O)C12CCc1ccccc12	> 100	> 31.6	> 100	> 100	> 100	> 100	> 100	> 100	> 100										
CN1CC(=O)N(C)c2ncn(Cc3ccccc3)c2C1=O		> 100	> 100	> 100	> 100		> 100	> 100	> 100										
CN(C)CCNC(=O)c1cccc2nc3cc(Cl)ccc3nc12	5.61	> 27.8		15.4	2.86	> 23.8	15.2	> 50.6	> 21.9										
C/C(=N\Nc1cc(C)c2ccccc2n1)c1ccccn1	1.37	0.499	1.17	5.4	1.31		1.76	1.49	1.2	0.07	< 0.0387	0.066	0.212			0.0807	1.91	16.2	0.0789
CC(=O)OC1CCn2nnc(CO)c21 (configuration not stated)		> 100	> 100	> 100		> 100	> 100	> 100											

From PubChem BioAssay (NCI)
